From patent publication US8163766B2, “Beta-secretase modulators and methods of use” (Amgen Inc., priority 2005, dated 2012)

test system: Aβ 40 in conditioned media of cells stably expressing Amyloid Precursor Protein (APP); test: BACE Cell-Based Assay (Aβ40 in conditioned medium, sandwich ELISA); conditions: 24 hours of incubation with the test compounds, Aβ 40 by sandwich ELISA, read-out: IC50 values in the cell-based assay (inhibition of Aβ 40)
How it was run: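 APP-stably-expressing cells in DMEM/10% FBS exposed 24 h to 10-point compound dilutions starting at 100 or 10 μM, 0.1% DMSO final. Aβ40 in conditioned medium measured by sandwich ELISA (pAb40 capture, biotinylated 6E10 detection, Eu time-resolved fluorescence); IC50 from percent inhibition versus concentration.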

Row | Compound | IC50
1 | O=C(N[C@@H](Cc1ccccc1)[C@H](O)CN[C@H]1CC2(CCC2)Nc2ccc(Br)cc21)c1cc(-c2ccccn2)c(=O)n(C2CCCC2)c1 [Example 471, N-((1S,2R)-3-(((4′S)-6′-bromo-3′,4′-dihydro-1′H-spiro[cyclobutane-1,2′-quinolin]-4′-yl)amino)-2-hydroxy-1-(phenylmethyl)propyl)-1′-cyclopentyl-2′-oxo-1′,2′-dihydro-2,3′-bipyridine-5′-carboxamide] | ≤ 5 µM
2 | CCc1ccc2c(c1)[C@@H](NCC(=O)[C@H](Cc1ccccc1)NC(=O)[C@@H]1CN(C(=O)N3CCCCC3)CCO1)CC(C)(C)O2 [Example 475, (2S)-N-((1S)-3-(((4S)-6-ethyl-2,2-dimethyl-3,4-dihydro-2H-chromen-4-yl)amino)-2-oxo-1-(phenylmethyl)propyl)-4-(1-piperidinylcarbonyl)-2-morpholinecarboxamide] | ≤ 5 µM
3 | CC#CC[C@H](NC(=O)c1cc(-c2ccccn2)c(=O)n(C2CCCC2)c1)[C@H](O)CN[C@H]1CC2(CCC2)Oc2ccc(CC)cc21 [Example 477, 1′-cyclopentyl-N-((1S)-1-((1R)-2-(((4S)-6-ethyl-3,4-dihydrospiro[chromene-2,1′-cyclobutan]-4-yl)amino)-1-hydroxyethyl)-3-pentyn-1-yl)-2′-oxo-1′,2′-dihydro-2,3′-bipyridine-5′-carboxamide] | ≤ 5 µM
4 | CC1(C)C[C@@H](NC[C@@H](O)[C@H](Cc2ccccc2)NC(=O)c2cc(-c3ccccn3)c(=O)n(C3CCCC3)c2)c2cc(Br)ccc2N1 [Example 481, N-((1S,2R)-3-(((4R)-6-bromo-2,2-dimethyl-1,2,3,4-tetrahydro-4-quinolinyl)amino)-2-hydroxy-1-(phenylmethyl)propyl)-1′-cyclopentyl-2′-oxo-1′,2′-dihydro-2,3′-bipyridine-5′-carboxamide] | ≤ 5 µM
5 | CC1(C)C[C@H](NC[C@@H](O)[C@H](Cc2ccccc2)NC(=O)c2cc(-c3ccccn3)c(=O)n(C3CCCC3)c2)c2cc(Br)ccc2N1 [Example 482, N-((1S,2R)-3-(((4S)-6-bromo-2,2-dimethyl-1,2,3,4-tetrahydro-4-quinolinyl)amino)-2-hydroxy-1-(phenylmethyl)propyl)-1′-cyclopentyl-2′-oxo-1′,2′-dihydro-2,3′-bipyridine-5′-carboxamide] | ≤ 5 µM
6 | CCc1ccc2c(c1)[C@@H](NC[C@@H](O)[C@H](Cc1ccccc1)NC(=O)[C@H]1CN(C(=O)N3CCCCC3)CCO1)CC(C)(C)O2 [Example 484, (2R)-N-((1S,2R)-3-(((4S)-6-ethyl-2,2-dimethyl-3,4-dihydro-2H-chromen-4-yl)amino)-2-hydroxy-1-(phenylmethyl)propyl)-4-(1-piperidinylcarbonyl)-2-morpholinecarboxamide] | ≤ 5 µM
7 | CCc1ccc2c(c1)[C@@H](NC[C@@H](O)[C@H](Cc1ccccc1)NC(=O)[C@@H]1CN(C(=O)N3CCCCC3)CCO1)CC(C)(C)O2 [Example 485, (2S)-N-((1S,2R)-3-(((4S)-6-ethyl-2,2-dimethyl-3,4-dihydro-2H-chromen-4-yl)amino)-2-hydroxy-1-(phenylmethyl)propyl)-4-(1-piperidinylcarbonyl)-2-morpholinecarboxamide] | ≤ 5 µM
8 | CC(C)(C)Cc1ccc2c(c1)[C@H](NC[C@@H](O)[C@H](Cc1ccccc1)NC(=O)c1cc(-c3ccccn3)c(=O)n(C3CCCC3)c1)CC(C)(C)N2 [Example 488, 1′-cyclopentyl-N-((1S,2R)-3-(((4R)-6-(2,2-dimethylpropyl)-2,2-dimethyl-1,2,3,4-tetrahydro-4-quinolinyl)amino)-2-hydroxy-1-(phenylmethyl)propyl)-2′-oxo-1′,2′-dihydro-2,3′-bipyridine-5′-carboxamide] | ≤ 5 µM
9 | CC(C)(C)Cc1ccc2c(c1)[C@@H](NC[C@@H](O)[C@H](Cc1ccccc1)NC(=O)c1cc(-c3ccccn3)c(=O)n(C3CCCC3)c1)CC(C)(C)N2 [Example 489, 1′-cyclopentyl-N-((1S,2R)-3-(((4S)-6-(2,2-dimethylpropyl)-2,2-dimethyl-1,2,3,4-tetrahydro-4-quinolinyl)amino)-2-hydroxy-1-(phenylmethyl)propyl)-2′-oxo-1′,2′-dihydro-2,3′-bipyridine-5′-carboxamide] | ≤ 5 µM

The remaining lines, values ahead:

Row | IC50 | Compound
10 | ≤ 5 µM | CCc1ccc2c(c1)C(NC[C@@H](O)[C@H](Cc1ccccc1)NC(=O)c1cc(-c3ccccn3)c(=O)n(C3CCCC3)c1)CC1(CCC1)O2 (stereo partly drawn) [Example 164, 1-Cyclopentyl-N-((2S,3R)-4-((S)-6-ethyl-2,2-spirocyclobutylchroman-4-ylamino)-3-hydroxy-1-phenylbutan-2-yl)-6-oxo-5-(pyridin-2-yl)-1,6-dihydropyridine-3-carboxamide]
11 | ≤ 5 µM | CCc1ccc2c(c1)[C@H](NC[C@@H](O)[C@H](Cc1ccccc1)NC(=O)c1cc(-c3ccccn3)c(=O)n(C(C)C)c1)CC1(CCCC1)O2 [Example 165, N-((2S,3R)-4((R)-6-ethyl-2,2-spirocyclopentylchroman-4-ylamino)-3-hydroxy-1-phenylbutan-2-yl)-1-isopropyl-6-oxo-5-(pyridin-2-yl)-1,6-dihydropyridine-3-carboxamide]
12 | ≤ 5 µM | O=C(N[C@@H](Cc1ccc(F)cc1)[C@H](O)CN[C@H]1CC2(CCC2)Oc2cc(F)c(-n3cccn3)cc21)C1CC1 [Example 472, N-((1S,2R)-1-((4-fluorophenyl)methyl)-3-(((4S)-7-fluoro-6-(1H-pyrazol-1-yl)-3,4-dihydrospiro[chromene-2,1′-cyclobutan]-4-yl)amino)-2-hydroxypropyl)cyclopropanecarboxamide]
13 | ≤ 5 µM | O=C(N[C@@H](Cc1ccc(F)cc1)[C@H](O)CN[C@H]1CC2(CCC2)Oc2cc(F)c(-n3cccn3)cc21)C1CCC1 [Example 473, N-((1S,2R)-1-((4-fluorophenyl)methyl)-3-(((4S)-7-fluoro-6-(1H-pyrazol-1-yl)-3,4-dihydrospiro[chromene-2,1′-cyclobutan]-4-yl)amino)-2-hydroxypropyl)cyclobutanecarboxamide]
14 | ≤ 5 µM | O=C(N[C@@H](Cc1ccccc1)[C@H](O)CN[C@H]1CC2(CCC2)Oc2ccccc21)c1cc(-c2ccccn2)c(=O)n(C2CCCC2)c1 [Example 476, 1′-cyclopentyl-N-((1S,2R)-3-((4S)-3,4-dihydrospiro[chromene-2,1′-cyclobutan]-4-ylamino)-2-hydroxy-1-(phenylmethyl)propyl)-2′-oxo-1′,2′-dihydro-2,3′-bipyridine-5′-carboxamide]
15 | ≤ 5 µM | C[C@@H](N[C@H]1CC(C)(C)Oc2ccc(Br)cc21)[C@H](O)[C@H](Cc1ccccc1)NC(=O)c1cc(-c2ccccn2)c(=O)n(C2CCCC2)c1 [Example 480, N-((1S,2S,3R)-3-(((4S)-6-bromo-2,2-dimethyl-3,4-dihydro-2H-chromen-4-yl)amino)-2-hydroxy-1-(phenylmethyl)butyl)-1′-cyclopentyl-2′-oxo-1′,2′-dihydro-2,3′-bipyridine-5′-carboxamide]
16 | ≤ 5 µM | CCCOC[C@H](NC(=O)c1cc(-c2ccccn2)c(=O)n(C2CCCC2)c1)[C@H](O)CN[C@H]1CC2(CCC2)Oc2ccc(CC)cc21 [Example 483, 1′-cyclopentyl-N-((1S,2R)-3-(((4S)-6-ethyl-3,4-dihydrospiro[chromene-2,1′-cyclobutan]-4-yl)amino)-2-hydroxy-1-((propyloxy)methyl)propyl)-2′-oxo-1′,2′-dihydro-2,3′-bipyridine-5′-carboxamide]
